Source: PMC3310271 (Journal of agricultural and food chemistry, 2011)
Where two headings read alike, the source gives them in different places.

Experiments:
[1] = tested on: colon cancer cells (HCT116); settings: HCT116, among phenolic acids formed in TIM-2; cited from earlier work
[2] = TIM-1 gastrointestinal model bioaccessibility of maqui berry anthocyanins; type: in vitro ADME; settings: for Total Bioaccessible Anthocyanin Amount: maqui berry extract in TIM-1, jejunal + ileal absorption over 4 h
[3] = first 4 h; cited from earlier work
diabetic C57b1/6J mice = settings: gavage; cited from earlier work
[4] = maqui berry extract in TIM-1, over 4 h

Q: Which Antiproliferative activity [1] does the source give for O=C(O)Cc1ccc(O)c(O)c1 [3,4-dihydroxyphenylacetic acid] here?
A: antiproliferative activity

Q: Which results are given for OC[C@H]1O[C@@H](Oc2cc3c(O)cc(O)cc3[o+]c2-c2ccc(O)c(O)c2)[C@H](O)[C@@H](O)[C@@H]1O [Cyanidin-3-glucoside]?
A: Total Bioaccessibility as % of intake [2]: 4.28 +/− 0.67 % of intake; Recovery in ileostomy patients [3]: 1.5%

Q: With OC[C@H]1O[C@@H](Oc2cc3c(O[C@@H]4O[C@H](CO)[C@@H](O)[C@H](O)[C@H]4O)cc(O)cc3[o+]c2-c2cc(O)c(O)c(O)c2)[C@H](O)[C@@H](O)[C@@H]1O [Delphinidin-3,5-diglucoside] as the compound, how does the “Total Bioaccessible Anthocyanin Amount” value [2] read?
A: 1.17 ± 0.57 mg

Q: And the “Recovery in Ileal Efflux as a % of Intake” value (shortened to “Recovery … as a % of Intake”) [2, 4]?
A: 0.77 +/− 0.77 % of intake

Q: What about the “Total Bioaccessibility as % of intake” value [2, 4] of the same compound?
A: 3.61 +/− 1.74 % of intake

Q: And the “Total Bioaccessibility as % of intake” value ([2]; maqui berry extract in TIM-1, over 4 h, listed as delphinidin-3,5-diglucoside)?
A: 3.6 % of intake

Q: Which results are given for OC[C@H]1O[C@@H](Oc2cc3c(O)cc(O)cc3[o+]c2-c2cc(O)c(O)c(O)c2)[C@H](O)[C@@H](O)[C@@H]1O [Delphinidin-3-glucoside]?
A: Total Bioaccessible Anthocyanin Amount [2]: 3.02 ± 1.83 mg; Recovery in Ileal Efflux as a % of Intake [2, 4]: 0.87 +/− 0.78 % of intake; Total Bioaccessibility as % of intake [2, 4]: 3.15 +/− 1.91 % of intake

Q: With OC[C@H]1O[C@@H](Oc2cc(O)cc3[o+]c(-c4cc(O)c(O)c(O)c4)c(O[C@@H]4O[C@H](CO)[C@@H](O)[C@H](O)[C@H]4O[C@@H]4OC[C@@H](O)[C@H](O)[C@H]4O)cc23)[C@H](O)[C@@H](O)[C@@H]1O [Delphinidin-3-sambubioside-5-glucoside] as the compound, how does the “Recovery … as a % of Intake” value [2, 4] read?
A: 0.32+/− 0.32 % of intake

Q: For OC[C@H]1O[C@@H](Oc2cc3c(O)cc(O)cc3[o+]c2-c2cc(O)c(O)c(O)c2)[C@H](O[C@@H]2OC[C@@H](O)[C@H](O)[C@H]2O)[C@@H](O)[C@@H]1O [Delphinidin-3-sambubioside], which “Total Bioaccessibility as % of intake” value [2] is on record?
A: 1.23 +/− 0.49 % of intake

Q: What about the “Recovery … as a % of Intake” value [2, 4] of the same compound?
A: 0.26 +/− 0.24 % of intake

Q: With COc1cc(-c2[o+]c3cc(O)cc(O)c3cc2O[C@@H]2O[C@H](CO)[C@@H](O)[C@H](O)[C@H]2O)cc(OC)c1O [malvidin-3-O-glucoside] as the compound, how does the “Effect on blood glucose levels” value (diabetic C57b1/6J mice) read?
A: significantly hypoglycemic

Q: Which “Total Bioaccessibility as % of intake” value [2] does the source give for “Cyanidin-3-sambubioside-5-glucoside + cyanidin3,5-diglucoside” here?
A: 17.84 +/− 2.61 % of intake
